Reference: patent US11052100B2, “Stable nicotinamide riboside composition and preparation method thereof” (BONTAC BIO-ENGINEERING (SHENZHEN) CO., LTD, priority 2018, dated 2021)

Test: Stability accelerated test (purity of nicotinamide riboside by HPLC)
Format: physicochemical
Conditions: 25° C.±2° C., relative humidity 60% ±10%, average of 3 samples
Experimental: The stability accelerated test was carried out on test subjects (nicotinamide riboside and the nicotinamide riboside composition prepared in Embodiment 1 to Embodiment 4 of the present invention) in accordance with the provisions of the Guidelines for Drug Stability Test in the Chinese Pharmacopoeia 2015. The test method was: taking 3 samples from each test subject in an environment with a temperature of 25° C.±2° C. and a relative humidity of 60% ±10%, taking samples once at the end of the 0th month, 1st month, 2nd month, 3rd month, and 6th month during the test period, detecting the purity of nicotinamide riboside by HPLC, and calculating an average value of 3 parts. In the table, 1, 2, 3 and 4 in the first column represent Embodiment 1, Embodiment 2, Embodiment 3 and Embodiment 4, respectively, NR represents nicotinamide riboside, KGM represents konjac glucomannan, and RA represents rebaudioside A.

purity of nicotinamide riboside by HPLC, 0th month (end of 0th month): 99.6%
purity of nicotinamide riboside by HPLC, 1st month (end of 1st month): 10.6%
purity of nicotinamide riboside by HPLC, 2nd month (end of 2nd month): 5.1%
purity of nicotinamide riboside by HPLC, 3rd month (end of 3rd month): 3.4%
purity of nicotinamide riboside by HPLC, 6th month (end of 6th month): 3.2%
SMILES: NC(=O)c1ccc[n+]([C@@H]2O[C@H](CO)[C@@H](O)[C@H]2O)c1 [NR, Nicotinamide riboside]
